13 compounds from patent US6410735B1, “1-(4-arylpiperazin-1-y1)-ω-[N-(α,ω-dicarboximido)]-alkanes useful as uro-selective α1-adrenoceptor blockers” (Ranbaxy Laboratories Limited, priority 1997, dated 2002) can be followed below.

Where a name gives a salt, the structure may show the parent alone. Read-outs that look alike come from different tables or passages of the source.

One data set addresses T1, α1A-adrenoceptor (Rattus norvegicus, UniProt P43140).
T1 construct: from tissue; host or cells: rat submaxillary gland membranes
T1 sequence (P43140 1-466): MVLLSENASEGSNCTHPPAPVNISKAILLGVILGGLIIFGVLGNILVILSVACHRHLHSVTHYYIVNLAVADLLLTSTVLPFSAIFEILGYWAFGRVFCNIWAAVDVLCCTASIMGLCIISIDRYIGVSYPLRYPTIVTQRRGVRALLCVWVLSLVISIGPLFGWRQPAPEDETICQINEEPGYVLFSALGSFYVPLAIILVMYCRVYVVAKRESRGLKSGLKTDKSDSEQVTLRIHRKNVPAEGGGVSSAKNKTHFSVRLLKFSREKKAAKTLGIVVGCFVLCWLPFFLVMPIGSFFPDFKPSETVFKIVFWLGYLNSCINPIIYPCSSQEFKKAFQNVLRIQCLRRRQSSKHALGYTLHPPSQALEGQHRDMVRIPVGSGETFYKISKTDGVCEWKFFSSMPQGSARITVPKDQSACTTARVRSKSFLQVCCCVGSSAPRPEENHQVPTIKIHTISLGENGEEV
Kind of data set: Receptor binding assay, [3H]prazosin, rat submaxillary membranes. Here is the method:
(§1) Receptor binding assays, (RBA's) were performed for native α1-adrenoceptors. Rat submaxillary and rat liver membrane preparations were used to assess the affinity for α1A and α1B subtypes, respectively. Aliquots of membrane protein ([…]) were incubated in a final volume of […] assay buffer (50 mM Tris, 0.5 mM EDTA at pH 7.4) with 0.5 nM [^3H] prazosin for 60 mins at 28 ° C. Reaction was stopped by rapid filtration on Millipore filters. Filters were dried and bound radioactivity counted. Non-specific binding was determined in the presence of 0.3 mM prazosin.

Another data set concerns the target T2, α1D-adrenoceptor (aorta) (Rattus norvegicus, UniProt P23944).
T2 construct: Aorta, prostate and spleen tissues were isolated from urethane anaesthetized (1.5 gm/kg) male wistar rats; from tissue; host or cells: isolated aorta of male Wistar rats
T2 sequence (P23944 1-561): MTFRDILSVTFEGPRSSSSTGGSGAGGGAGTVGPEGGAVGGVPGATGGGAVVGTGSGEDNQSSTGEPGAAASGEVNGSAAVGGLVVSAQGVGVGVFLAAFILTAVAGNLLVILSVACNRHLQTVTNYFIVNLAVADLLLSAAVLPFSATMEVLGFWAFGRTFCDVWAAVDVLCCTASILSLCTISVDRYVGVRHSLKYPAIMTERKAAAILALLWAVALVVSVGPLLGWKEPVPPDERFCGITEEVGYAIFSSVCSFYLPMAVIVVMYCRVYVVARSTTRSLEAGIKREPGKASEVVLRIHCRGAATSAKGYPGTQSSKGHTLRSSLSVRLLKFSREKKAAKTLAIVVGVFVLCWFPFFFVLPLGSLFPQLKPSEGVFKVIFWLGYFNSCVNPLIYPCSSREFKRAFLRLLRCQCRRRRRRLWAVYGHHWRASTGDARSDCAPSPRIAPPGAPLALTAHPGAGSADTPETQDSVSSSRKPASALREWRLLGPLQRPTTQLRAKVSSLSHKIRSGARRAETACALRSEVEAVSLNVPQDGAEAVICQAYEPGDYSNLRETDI
Kind of data set: In vitro functional assay, norepinephrine-induced contraction of isolated aorta. The class given is cell-based. An excerpt: (§2) In order to study selectivity of action of the present compounds towards different α-adrenoceptor subtypes, the ability of these compounds to antagonize α1-adrenoceptor agonist induced contractile response of aorta (α1D), prostate (α1A) and spleen (α1B) was studied. Aorta, prostate and spleen tissues were isolated from urethane anaesthetized (1.5 gm/kg) male wistar rats. Isolated tissues were mounted in organ bath containing Krebs Henseleit buffer of the following composition (mM): NaCl 118; KCl 4.7; CaCl2 2.5; MgSO4·H2O 1.2; NaHCO3 25; KH2PO4 1.2; glucose 11.5. Buffer was maintained at 37° C. and aerated with a mixture of 95% O2 and 5% CO2. A resting tension of 2 g (aorta) or 1 g (spleen and prostate) was applied to tissues. Contractile response was monitored using a force displacement transducer and recorded on chart recorders. Tissues were allowed to equilibrate for 2 hours. At the end of equilibration period, concentration response curves to norepinephrine (aorta) and phenylephrine (spleen and prostate) were obtained in the absence and presence of the tested compound (at concentrations of 0.1, 1 and 10 μM). Antagonist affinity was calculated and expressed as PKB values in Table 1.

Data set [1] concerns the target T3, α1B-adrenoceptor (spleen) (Rattus norvegicus, UniProt P15823).
T3 construct: Aorta, prostate and spleen tissues were isolated from urethane anaesthetized (1.5 gm/kg) male wistar rats; from tissue; host or cells: isolated spleen of male Wistar rats
T3 sequence (P15823 1-515): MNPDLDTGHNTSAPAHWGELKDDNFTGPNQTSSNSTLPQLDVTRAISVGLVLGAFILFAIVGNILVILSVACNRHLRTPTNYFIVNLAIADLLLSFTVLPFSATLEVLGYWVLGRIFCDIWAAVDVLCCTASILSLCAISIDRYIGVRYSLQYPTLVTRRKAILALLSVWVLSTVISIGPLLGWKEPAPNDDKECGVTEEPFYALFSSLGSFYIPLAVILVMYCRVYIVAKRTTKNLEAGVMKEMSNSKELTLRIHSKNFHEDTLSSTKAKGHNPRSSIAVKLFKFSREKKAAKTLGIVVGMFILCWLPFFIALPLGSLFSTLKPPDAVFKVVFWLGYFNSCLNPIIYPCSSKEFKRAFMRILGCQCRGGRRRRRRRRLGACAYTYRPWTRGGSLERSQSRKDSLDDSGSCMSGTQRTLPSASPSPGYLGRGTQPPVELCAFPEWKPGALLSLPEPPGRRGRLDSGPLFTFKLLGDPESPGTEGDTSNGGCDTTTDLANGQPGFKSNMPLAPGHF
Kind of data set: In vitro functional assay, phenylephrine-induced contraction of isolated spleen. It counts as cell-based.
Description: as §2

Data set [2] concerns the target T4, α1A-adrenoceptor (prostate) (Rattus norvegicus, UniProt P43140).
T4 construct: Aorta, prostate and spleen tissues were isolated from urethane anaesthetized (1.5 gm/kg) male wistar rats; from tissue; host or cells: isolated prostate of male Wistar rats
T4 sequence (P43140 1-466): T1 sequence (P43140 1-466)
Kind of data set: In vitro functional assay, phenylephrine-induced contraction of isolated prostate. The class given is cell-based.
Description: as §2

A further data set addresses T5, α1B-adrenoceptor (Rattus norvegicus, UniProt P15823).
T5 construct: from tissue; host or cells: rat liver membranes
T5 sequence (P15823 1-515): T3 sequence (P15823 1-515)
Kind of data set: Receptor binding assay, [3H]prazosin, rat liver membranes. The following applies: rat liver membranes, 0.5 nM [3H]prazosin; read-out: RBA (Ki nM) α1B. Here is the method:
as §1

Setting [3] is: rat submaxillary membranes, 0.5 nM [3H]prazosin, read-out: RBA (Ki nM) α1A.
The mark [4] stands for this setting: rat aorta, norepinephrine, read-out: In Vitro Functional Assay (pKB) α1D (converted).
Setting [5] is: rat spleen, phenylephrine, read-out: In Vitro Functional Assay (pKB) α1B (converted).
[6] abbreviates: rat prostate, phenylephrine, read-out: In Vitro Functional Assay (pKB) α1A (converted).

On to `O=C1CCC(=O)N1CCCN1CCN(c2cccc(C(F)(F)F)c2)CC1` (as salt: hydrochloride) [Compound 3, 1-[4-(3-Trifluoromethylphenyl)piperazin-1-yl]-3-(2,5-dioxopyrrolidin-1-yl)propane], for which the melting point was in the range of 218 to 220 °C.

`O=C1CCC(=O)N1CCCN1CCN(c2ccccn2)CC1` (as salt: hydrochloride) [Compound 4, 1-[4-(2-Pyridyl)piperazin-1-yl]-3-(2,5-dioxopyrrolidin-1-yl)propane] gave a melting point of 261 to 262 °C.

`O=C1CCC(=O)N1CCCN1CCN(c2cccc(Cl)c2)CC1` (as salt: hydrochloride) [Compound 5, 1-[4-(3-Chlorophenyl)piperazin-1-yl]-3-(2,5-dioxopyrrolidin-1-yl)propane] returned a melting point of 230 to 231 °C.

In turn, `COc1ccccc1N1CCN(CCN2C(=O)CCC2=O)CC1` (as salt: hydrochloride) [Compound 10, 1-[4-(2-Methoxyphenyl)piperazin-1-yl]-2-(2,5-dioxopyrrolidin-1-yl)ethane] had a melting point of 232 to 234 °C.

Regarding `O=C1CCCC(=O)N1CCCN1CCN(c2cccc(C(F)(F)F)c2)CC1` (as salt: hydrochloride) [Compound 16, 1-[4-(3-Trifluoromethylphenyl)piperazin-1-yl]-3-(2,6-dioxopiperidin-1-yl)propane], the melting point fell in the range of 228 to 229 °C.

As for `O=C1CCCC(=O)N1CCCN1CCN(c2ccccn2)CC1` (as salt: hydrochloride) [Compound 19, 1-[4-(2-Pyridyl)piperazin-1-yl)-3-(2,6-dioxopiperidin-1-yl)propane], the melting point lay within 244 to 245 °C.

`O=C1CCCC(=O)N1CCCN1CCN(c2cccc(Cl)c2)CC1` (as salt: hydrochloride) [Compound 20, 1-[4-(3-Chlorophenyl)piperazin-1-yl]-3-(2,6-dioxopiperidin-1-yl)propane] showed a melting point of 214 to 215 °C.

In the case of `COc1ccccc1N1CCN(CCN2C(=O)CCC2=O)CC1` [Compound 10, 1-[4-(2-Methoxyphenyl)piperazin-1-yl]-2-(2,5-dioxopyrrolidin-1-yl)ethane], the Ki at α1A-adrenoceptor (setting [3]) was found to be 1600 nM; at α1B-adrenoceptor, 2350 nM. The Kb at α1D-adrenoceptor (aorta) (setting [4]) is 126 nM; in data set [1] (setting [5]), 200 nM; in data set [2] (setting [6]), 126 nM.

For the compound `O=C1CCCC(=O)N1CCCN1CCN(c2ccc(F)cc2)CC1` [Compound 14, 1-[4-(4-Fluorophenyl)piperazin-1-yl]-3-(2,6-dioxopiperidin-1yl)propane], the Ki at α1A-adrenoceptor (setting [3]) was determined as 67 nM; on α1B-adrenoceptor, 192 nM. Further, the Kb is 79.4 nM on α1D-adrenoceptor (aorta) (setting [4]), 39.8 nM in data set [1] (setting [5]) and 3.98 nM in data set [2] (setting [6]).

Turning to `O=C1CCCC(=O)N1CCCN1CCN(c2ccc(Cl)cc2)CC1` [Compound 15, 1-[4-(4-Chlorophenyl)piperazin-1-yl]-3-(2,6-dioxopiperidin-1yl)propane], the inhibition constant (Ki) on α1A-adrenoceptor (setting [3]) was found to be 520 nM; on α1B-adrenoceptor, 201 nM. Further, the values for the Kb (on α1D-adrenoceptor (aorta) (setting [4]); in data set [1] (setting [5]); in data set [2] (setting [6])) were 631 nM, 1000 nM and 200 nM, respectively.

Turning to `O=C1CCCC(=O)N1CCCN1CCN(c2ccccc2F)CC1` [Compound 17, 1-[4-(2-Fluorophenyl)piperazin-1-yl]-3-(2,6-dioxopiperidin-1-yl)propane], the Ki was determined as 21 nM at α1A-adrenoceptor and 396 nM on α1B-adrenoceptor. The Kb on α1D-adrenoceptor (aorta) was 12.6 nM; in data set [1], 79.4 nM; in data set [2], 10 nM.

On to `Cc1ccccc1N1CCN(CCCN2C(=O)CCCC2=O)CC1` [Compound 18, 1-[4-(2-Methylphenyl)piperazin-1-yl]-3-(2,6-dioxopiperidin-1yl)propane], for which the Ki stood at 9 nM at α1A-adrenoceptor (setting [3]) and 267 nM at α1B-adrenoceptor. Further, the figures for the Kb (on α1D-adrenoceptor (aorta) (setting [4]); in data set [1] (setting [5]); in data set [2] (setting [6])) were 3.16 nM, 3160 nM and 6.31 nM, respectively.

Take `Cc1ccc(N2CCN(CCCN3C(=O)CCCC3=O)CC2)cc1C` [Compound 21, 1-[4-(3,4-Dimethylphenyl)piperazin-1-yl]-3-(2,6-dioxopiperidin-1yl)propane]: the values for the Ki at α1A-adrenoceptor (setting [3]) and on α1B-adrenoceptor were 2130 nM and 176 nM, respectively. Besides, the Kb is 316 nM on α1D-adrenoceptor (aorta) (setting [4]), 200 nM in data set [1] (setting [5]) and 316 nM in data set [2] (setting [6]).
